What follows are compounds tested against T1, LATS1 (Serine/threonine-protein kinase LATS1) (Homo sapiens, UniProt O95835) (assay: SILAC LC-MS ATP acyl phosphate probe competition, native kinases in HEK293T). Conditions: site Lys1; ATP 1 mM; Ketanserin, Ritanserin 100 μM; RF001 1 mM.
T1 construct: Native kinases; endogenous in cells; host or cells: HEK293T soluble proteome
T1 sequence (O95835 1-1130): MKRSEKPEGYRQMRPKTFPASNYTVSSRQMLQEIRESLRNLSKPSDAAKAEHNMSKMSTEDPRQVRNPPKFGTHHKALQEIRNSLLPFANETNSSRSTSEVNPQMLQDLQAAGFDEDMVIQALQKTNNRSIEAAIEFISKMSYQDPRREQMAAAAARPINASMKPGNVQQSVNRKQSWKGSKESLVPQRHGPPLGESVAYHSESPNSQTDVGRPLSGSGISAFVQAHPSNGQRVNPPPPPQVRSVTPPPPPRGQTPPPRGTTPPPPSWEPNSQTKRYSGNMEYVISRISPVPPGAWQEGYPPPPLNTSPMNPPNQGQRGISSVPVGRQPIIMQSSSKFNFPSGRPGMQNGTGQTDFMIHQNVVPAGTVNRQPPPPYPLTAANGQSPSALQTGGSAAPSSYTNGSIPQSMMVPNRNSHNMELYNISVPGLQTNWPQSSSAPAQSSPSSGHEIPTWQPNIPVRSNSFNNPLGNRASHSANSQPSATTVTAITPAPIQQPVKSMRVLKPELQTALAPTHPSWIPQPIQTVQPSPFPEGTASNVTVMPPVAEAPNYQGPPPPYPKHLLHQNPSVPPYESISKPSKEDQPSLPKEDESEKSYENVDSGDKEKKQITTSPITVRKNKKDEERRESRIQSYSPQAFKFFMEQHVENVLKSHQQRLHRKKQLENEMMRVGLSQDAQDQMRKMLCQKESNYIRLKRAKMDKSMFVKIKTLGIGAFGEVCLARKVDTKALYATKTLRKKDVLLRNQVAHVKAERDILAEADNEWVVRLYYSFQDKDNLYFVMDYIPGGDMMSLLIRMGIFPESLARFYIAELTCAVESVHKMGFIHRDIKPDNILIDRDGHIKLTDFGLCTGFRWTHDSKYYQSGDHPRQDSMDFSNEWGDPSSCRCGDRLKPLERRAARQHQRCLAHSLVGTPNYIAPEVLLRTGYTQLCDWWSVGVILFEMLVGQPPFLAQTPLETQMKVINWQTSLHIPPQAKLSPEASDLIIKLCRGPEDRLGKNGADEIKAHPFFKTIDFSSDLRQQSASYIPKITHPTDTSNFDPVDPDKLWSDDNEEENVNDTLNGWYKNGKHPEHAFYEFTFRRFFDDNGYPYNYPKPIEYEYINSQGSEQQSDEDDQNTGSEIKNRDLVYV
Assay type: binding
Protocol: Proteomes were diluted to 2 mg/ml in kinase buffer. The light and heavy proteomes (0.5 mg, 250 μL total reaction volume) were pre-treated with vehicle or compound, respectively (5 μL, DMSO (light) or 50× stock in DMSO (heavy)), mixed gently, and incubated at 25° C. for 30 min. […] After incubation, matched light and heavy proteomes were transferred and mixed in a 1:1 ratio in a two-dram vial containing 4:1:3 MeOH/CHCl3/H2O (2 mL MeOH, 500 AL CHCl3, 1.5 mL H2O) for extraction of proteins to remove excess probe, quickly vortexed, and centrifuged at 1,400×g for 3 min to pellet protein. Organic and aqueous layers were removed using a Pasteur pipette, and the protein pellet was transferred to a screw-top tube in 600 μL MeOH. A second extraction was performed by adding CHCl3 (150 μL) and H2O (600 μL) to each sample, vortexed, and centrifuged at 1,400×g for 3 min to pellet protein. Organic and aqueous layers were removed by pipetting. MeOH added to pellet (600 μL) and pellets were re-suspended by sonication (3×1 sec pulse, 20% amplitude) for a final extraction. Samples were then centrifuged at 17,000×g for 5 min to pellet protein and MeOH was removed by pipetting. The pellets were re-suspended in 10 M urea/25 mM ammonium bicarbonate ([…]), brought to a final volume of 1 mL with 25 mM ammonium bicarbonate, reduced with 10 mM DTT for 15 min at 65° C. allowed to cool, and then alkylated with 40 mM iodoacetamide for 30 min at 25° C. in the dark. To desalt the samples, each was transferred to a two-dram glass vial, and to the vial 4:1:2 MeOH/CHCl3/H2O (2 mL MeOH, 500 AL CHCl3, 1 mL H2O) was added. The vials were vortexed quickly, spun at 1.400×g for 3 min to pellet protein, and aqueous and organic layers were removed using a Pasteur pipette. The resulting protein pellet was transferred to a screw-top tube in 600 μL MeOH, and then CHCl3 (150 μL) and HO (600 μL) were added to extract protein a second time. The samples were vortexed quickly, centrifuged at 1,400×g to pellet protein, and the aqueous and organic layers were removed by pipetting. Resulting protein pellet was suspended in MeOH (600 μL) via sonication (3×1 sec pulse, 20% amplitude), centrifuged at 17,000×g for 5 min to pellet protein, and MeOH removed by pipetting. Protein pellets were then re-suspended in 25 mM ammonium bicarbonate (500 μL) and digested with 7.5 μg Trypsin/Lys-C(Promega, 15 μL, 0.5 μg/μL) for 3 h at 37° C. Avidin-agarose beads (Thermo Scientific Pierce, 100 AL aliquot per sample) were washed three times by adding 10 mL DPBS, centrifuged at 1,400×g for 1 min, and decanting. This wash step was repeated for a total of 3 times. Digested protein samples were mixed with washed avidin beads (100 μL) and brought to a volume of 5.5 mL with DPBS in a 15 mL conical and rotated for 1 h to enrich samples for the covalent desthiobiotin modification. The beads were washed with 25 mM ammonium bicarbonate (3× with 10 mL, centrifuge at 1,400×g for 3 min, decant) and then H2O (3× with 10 mL, centrifuge at 1,400×g for 3 min, decant). Washed beads were then transferred to a low-bind microfuge tube, centrifuged at 1,400×g for 3 min, allowed to rest for 1 min to settle beads, and then excess H2O was removed carefully using a gel-loading pipette tip. To elute peptides, 100 μL of elution buffer (50% acetonitrile, ACN; 0.1% formic acid) was added to each sample and incubated for 3 min. Beads were spun down at 1.400×g for 3 min, allowed to rest for 1 min to settle beads, and then 75 μL of peptide-containing supernatant was removed carefully using a gel-loading pipette tip and transferred to a new low bind centrifuge tube. This step was repeated two more times with 75 μL of elution buffer and all eluent were collected into the same centrifuge tube (˜225 μL total). Peptides were dried on a speed vacuum, resulting peptide samples acidified in 5% (v/v) formic acid, and stored at −80° C. until analysis.
The peptide samples were analyzed by liquid chromatography-mass spectrometry. […]

SILAC ratio, LATS1 probe-modified peptide	SMILES
1.4	Fc1ccc(C(=C2CCNCC2)c2ccc(F)cc2)cc1 [RF001, 4-(Bis(4-fluorophenyl)methylene) piperidine]
1.2	O=C(c1ccc(F)cc1)C1CCN(CCn2c(=O)[nH]c3ccccc3c2=O)CC1 [Ketanserin]

SMILES	SILAC ratio, LATS1 probe-modified peptide
Cc1nc2sccn2c(=O)c1CCN1CCC(=C(c2ccc(F)cc2)c2ccc(F)cc2)CC1 [Ritanserin]	1.8
